Assay results published in patent publication US8952024B2, “Herbicidal pyrimidone derivatives” (E I du Pont de Nemours and Company, priority 2009, dated 2015).

Tests used:
Assay in all cases: Test B pre-/postemergence plant response
Type in all cases: in vivo
[1] = test system: yellow nutsedge (Cyperus esculentus)
Procedure, shortened: (§1)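 Ratings reflect visual comparison with untreated controls 13 to 15 days after application, from 0 (no effect) to 100 (complete control). Application was preemergence to seeded loam/sand soil or postemergence to 1- to 4-leaf plants, with compound in a non-phytotoxic, surfactant-containing solvent.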

[2] = test system: Italian ryegrass (Lolium multiflorum)
Procedure, shortened: as §1

[3] = test system: johnsongrass (Sorghum halepense)
Procedure, shortened: as §1

kochia (Kochia scoparia) = test system: kochia (Kochia scoparia)
Procedure, shortened: as §1

[4] = test system: Surinam grass (Brachiaria decumbens)
Procedure, shortened: as §1

corn (Zea mays) = test system: corn (Zea mays)
Procedure, shortened: as §1

[5] = test system: large crabgrass (Digitaria sanguinalis)
Procedure, shortened: as §1

[6] = test system: ragweed (common ragweed, Ambrosia elatior)
Procedure, shortened: as §1

[7] = test system: blackgrass (Alopecurus myosuroides)
Procedure, shortened: as §1

[8] = test system: velvetleaf (Abutilon theophrasti)
Procedure, shortened: as §1

[9] = test system: woolly cupgrass (Eriochloa villosa)
Procedure, shortened: as §1

[10] = test system: lambsquarters (Chenopodium album)
Procedure, shortened: as §1

[11] = test system: downy bromegrass (Bromus tectorum)
Procedure, shortened: as §1

[12] = test system: bermudagrass (Cynodon dactylon)
Procedure, shortened: as §1

[13] = test system: giant foxtail (Setaria faberii)
Procedure, shortened: as §1

[14] = test system: green foxtail (Setaria viridis)
Procedure, shortened: as §1

[15] = test system: goosegrass (Eleusine indica)
Procedure, shortened: as §1

[16] = 31 g ai/ha, postemergence, scale 0 to 100, 0 is no effect, 100 is complete control
[17] = 250 g ai/ha, Preemergence, 0 to 100 scale
[18] = Postemergence, 62 g ai/ha, scale 0 (no effect) to 100 (complete control), 13 to 15 days
[19] = Postemergence, 125 g ai/ha, visual rating after 13 to 15 days, scale 0 (no effect) to 100 (complete control)
[20] = Postemergence, 250 g ai/ha, scale 0 to 100 (0 no effect, 100 complete control)
[21] = Preemergence, 31 g ai/ha, scale 0 to 100 (0 no effect, 100 complete control)
[22] = Preemergence, 125 g ai/ha, 0 to 100 scale
[23] = Preemergence, 62 g ai/ha, scale 0 to 100, 0 no effect, 100 complete control

Structure (SMILES): Cc1ccc(F)c(-n2c(-c3ccccc3)ncc(C(=O)C3=C(O)CCCC3=O)c2=O)c1 [Compound 51]
- Plant response rating, Nutsedge, Yellow [1, 16]: 60
- Plant response rating, Nutsedge, Yellow [1, 17]: 90
- Plant response rating, Nutsedge, Yellow [1, 18]: 65
- Plant response rating, Nutsedge, Yellow [1, 19]: 75
- Plant response rating, Nutsedge, Yellow [1, 20]: 80
- Plant response rating, Nutsedge, Yellow [1, 21]: 55
- Nutsedge, Yellow plant response rating [1, 22]: 85
- Plant response rating, Ryegrass, Italian [2, 16]: 0
- Plant response rating, Ryegrass, Italian [2, 17]: 5
- Plant response rating, Ryegrass, Italian [2, 18]: 0
- Plant response rating, Ryegrass, Italian [2, 19]: 10
- Plant response rating, Ryegrass, Italian [2, 20]: 30
- Plant response rating, Ryegrass, Italian [2, 21]: 0
- Ryegrass, Italian plant response rating [2, 22]: 0
- Plant response rating, Johnsongrass [3, 16]: 75
- Plant response rating, Johnsongrass [3, 17]: 80
- Plant response rating, Johnsongrass [3, 18]: 75
- Plant response rating, Johnsongrass [3, 19]: 85
- Plant response rating, Johnsongrass [3, 20]: 98
- Plant response rating, Johnsongrass [3, 21]: 0
- Plant response rating, Johnsongrass [3, 23]: 5
- Johnsongrass plant response rating [3, 22]: 75
- Plant response rating, Kochia (kochia (Kochia scoparia); [16]): 20
- Plant response rating, Kochia (kochia (Kochia scoparia); [18]): 20
- Plant response rating, Kochia (kochia (Kochia scoparia); [19]): 25
- Plant response rating, Kochia (kochia (Kochia scoparia); [20]): 35
- Plant response rating, Surinam Grass [4, 16]: 80
- Plant response rating, Surinam Grass [4, 17]: 100
- Plant response rating, Surinam Grass [4, 18]: 85
- Plant response rating, Surinam Grass [4, 19]: 90
- Plant response rating, Surinam Grass [4, 20]: 90
- Plant response rating, Surinam Grass [4, 21]: 95
- Surinam Grass plant response rating [4, 22]: 98
- Plant response rating, Corn (corn (Zea mays); [16]): 75
- Plant response rating, Corn (corn (Zea mays); [17]): 0
- Plant response rating, Corn (corn (Zea mays); [18]): 80
- Plant response rating, Corn (corn (Zea mays); [19]): 80
- Plant response rating, Corn (corn (Zea mays); [20]): 85
- Plant response rating, Corn (corn (Zea mays); [21]): 0
- Plant response rating, Corn (corn (Zea mays); [23]): 0
- Corn plant response rating (corn (Zea mays); [22]): 0
- Plant response rating, Crabgrass, Large [5, 16]: 80
- Plant response rating, Crabgrass, Large [5, 17]: 100
- Plant response rating, Crabgrass, Large [5, 18]: 85
- Plant response rating, Crabgrass, Large [5, 19]: 85
- Plant response rating, Crabgrass, Large [5, 20]: 90
- Plant response rating, Crabgrass, Large [5, 21]: 75
- Plant response rating, Crabgrass, Large [5, 23]: 98
- Crabgrass, Large plant response rating [5, 22]: 100
- Plant response rating, Ragweed [6, 16]: 80
- Plant response rating, Ragweed [6, 17]: 90
- Plant response rating, Ragweed [6, 18]: 80
- Plant response rating, Ragweed [6, 19]: 90
- Plant response rating, Ragweed [6, 20]: 95
- Plant response rating, Ragweed [6, 21]: 65
- Ragweed plant response rating [6, 22]: 80
- Plant response rating, Blackgrass [7, 16]: 0
- Plant response rating, Blackgrass [7, 17]: 20
- Plant response rating, Blackgrass [7, 18]: 30
- Plant response rating, Blackgrass [7, 19]: 50
- Plant response rating, Blackgrass [7, 20]: 55
- Plant response rating, Blackgrass [7, 21]: 0
- Plant response rating, Blackgrass [7, 23]: 0
- Blackgrass plant response rating [7, 22]: 10
- Plant response rating, Velvetleaf [8, 16]: 80
- Plant response rating, Velvetleaf [8, 17]: 100
- Plant response rating, Velvetleaf [8, 18]: 85
- Plant response rating, Velvetleaf [8, 19]: 90
- Plant response rating, Velvetleaf [8, 20]: 95
- Plant response rating, Velvetleaf [8, 21]: 75
- Velvetleaf plant response rating [8, 22]: 98
- Plant response rating, Cupgrass, Woolly [9, 16]: 75
- Plant response rating, Cupgrass, Woolly [9, 17]: 85
- Plant response rating, Cupgrass, Woolly [9, 18]: 75
- Plant response rating, Cupgrass, Woolly [9, 19]: 80
- Plant response rating, Cupgrass, Woolly [9, 20]: 90
- Plant response rating, Cupgrass, Woolly [9, 21]: 10
- Plant response rating, Cupgrass, Woolly [9, 23]: 35
- Cupgrass, Woolly plant response rating [9, 22]: 75
- Plant response rating, Lambsquarters [10, 16]: 75
- Plant response rating, Lambsquarters [10, 17]: 98
- Plant response rating, Lambsquarters [10, 18]: 90
- Plant response rating, Lambsquarters [10, 19]: 95
- Plant response rating, Lambsquarters [10, 20]: 98
- Plant response rating, Lambsquarters [10, 21]: 95
- Plant response rating, Lambsquarters [10, 23]: 98
- Lambsquarters plant response rating [10, 22]: 98
- Plant response rating, Bromegrass, Downy [11, 16]: 50
- Plant response rating, Bromegrass, Downy [11, 17]: 40
- Plant response rating, Bromegrass, Downy [11, 18]: 50
- Plant response rating, Bromegrass, Downy [11, 19]: 55
- Plant response rating, Bromegrass, Downy [11, 20]: 60
- Plant response rating, Bromegrass, Downy [11, 21]: 0
- Plant response rating, Bromegrass, Downy [11, 23]: 0
- Bromegrass, Downy plant response rating [11, 22]: 5
- Plant response rating, Bermudagrass [12, 16]: 80
- Plant response rating, Bermudagrass [12, 17]: 100
- Plant response rating, Bermudagrass [12, 18]: 90
- Plant response rating, Bermudagrass [12, 19]: 90
- Plant response rating, Bermudagrass [12, 20]: 98
- Plant response rating, Bermudagrass [12, 21]: 95
- Plant response rating, Bermudagrass [12, 23]: 98
- Bermudagrass plant response rating [12, 22]: 100
- Plant response rating, Foxtail, Giant [13, 16]: 80
- Plant response rating, Foxtail, Giant [13, 17]: 75
- Plant response rating, Foxtail, Giant [13, 18]: 80
- Plant response rating, Foxtail, Giant [13, 19]: 85
- Plant response rating, Foxtail, Giant [13, 20]: 85
- Plant response rating, Foxtail, Giant [13, 21]: 0
- Plant response rating, Foxtail, Giant [13, 23]: 45
- Foxtail, Giant plant response rating [13, 22]: 50
- Plant response rating, Foxtail, Green [14, 16]: 85
- Plant response rating, Foxtail, Green [14, 17]: 100
- Plant response rating, Foxtail, Green [14, 18]: 95
- Plant response rating, Foxtail, Green [14, 19]: 95
- Plant response rating, Foxtail, Green [14, 20]: 100
- Plant response rating, Foxtail, Green [14, 21]: 50
- Plant response rating, Foxtail, Green [14, 23]: 50
- Foxtail, Green plant response rating [14, 22]: 98
- Plant response rating, Goosegrass [15, 16]: 75
- Plant response rating, Goosegrass [15, 17]: 100
- Plant response rating, Goosegrass [15, 18]: 80
- Plant response rating, Goosegrass [15, 19]: 85
- Plant response rating, Goosegrass [15, 20]: 85
- Plant response rating, Goosegrass [15, 21]: 98
- Goosegrass plant response rating [15, 22]: 100
